How the values were obtained:
Assay type in all cases: protein assay
Parameters in all cases: concentration or dose not given beside the values
[1] = molecular target: T1, Protein cereblon/Bromodomain-containing protein 4 (Homo sapiens) (UniProt O60885+Q96SW2); test: PROTAC activity at CRBN/BRD4 (unknown origin) assessed as BRD4 degradation in presence of (1S,4R,5R,6S)-N-((2-(2,6-dioxopiperidin-3-yl)-1,3-dioxoisoindolin-4-yl)methyl)-5,6- dihydroxy bicyclo[2.2.1]heptane-2-carboxamide (CRB-N8066) by Western blot analysis
[2] = molecular target: T1, Protein cereblon/Bromodomain-containing protein 4 (Homo sapiens); test: PROTAC activity at CRBN/BRD4 (unknown origin) assessed as BRD4 degradation in presence of N-((2-(2,6-dioxopiperidin-3-yl)-1,3-dioxoisoindolin-4-yl)methyl)-2,3- dihydroxy benzamide (CRB-N8047) by Western blot analysis
[3] = molecular target: T1, Protein cereblon/Bromodomain-containing protein 4 (Homo sapiens); test: PROTAC activity at CRBN/BRD4 (unknown origin) assessed as BRD4 degradation in presence of N-((2-(2,6-dioxopiperidin-3-yl)-1,3-dioxoisoindolin-4-yl)methyl)-3,4- dihydroxy benzamide (CRB-N8046) by Western blot analysis

T1 sequence (Q96SW2 whole entry, looked up, other chains not shown): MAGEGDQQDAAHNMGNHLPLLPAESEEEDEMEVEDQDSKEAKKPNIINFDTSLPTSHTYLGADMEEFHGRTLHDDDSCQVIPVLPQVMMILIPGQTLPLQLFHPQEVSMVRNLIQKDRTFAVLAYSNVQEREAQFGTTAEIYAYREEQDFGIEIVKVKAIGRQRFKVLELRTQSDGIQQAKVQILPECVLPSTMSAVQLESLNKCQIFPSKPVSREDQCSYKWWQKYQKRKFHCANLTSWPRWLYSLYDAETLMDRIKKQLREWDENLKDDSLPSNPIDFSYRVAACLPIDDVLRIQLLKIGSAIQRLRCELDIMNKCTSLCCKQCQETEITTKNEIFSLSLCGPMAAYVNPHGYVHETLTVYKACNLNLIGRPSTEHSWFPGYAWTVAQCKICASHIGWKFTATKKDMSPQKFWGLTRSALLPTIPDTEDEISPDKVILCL

SMILES	Activity [1]	Activity [2]	Activity [3]
COc1ccc2c(c1)C(c1ccc(Cl)cc1)=N[C@@H](CC(=O)NCCCNC(=O)c1cccc(B(O)O)c1)c1nnc(C)n1-2	30%	30%	30%
COc1ccc2c(c1)C(c1ccc(Cl)cc1)=N[C@@H](CC(=O)NCCCCCNC(=O)c1cccc(B(O)O)c1)c1nnc(C)n1-2	30%	–	30%
COc1ccc2c(c1)C(c1ccc(Cl)cc1)=N[C@@H](CC(=O)NCCCCNC(=O)c1ccc(B(O)O)cc1)c1nnc(C)n1-2	30%	30%	–
CCNC(=O)C[C@@H]1N=C(c2ccc(Cl)cc2)c2cc(OCCCCC(=O)Nc3cccc(B(O)O)c3)ccc2-n2c(C)nnc21	30%	–	30%
COc1ccc2c(c1)C(c1ccc(Cl)cc1)=N[C@@H](CC(=O)NCCCCCNC(=O)c1ccc(B(O)O)cc1)c1nnc(C)n1-2	30%	–	–
COc1ccc2c(c1)C(c1ccc(Cl)cc1)=N[C@@H](CC(=O)NCc1cccc(B(O)O)c1)c1nnc(C)n1-2	–	30%	30%
COc1ccc2c(c1)C(c1ccc(Cl)cc1)=N[C@@H](CC(=O)NCc1ccc(B(O)O)cc1)c1nnc(C)n1-2	–	30%	–
COc1ccc2c(c1)C(c1ccc(Cl)cc1)=N[C@@H](CC(=O)NCCc1ccc(B(O)O)cc1)c1nnc(C)n1-2	–	30%	–
COc1ccc2c(c1)C(c1ccc(Cl)cc1)=N[C@@H](CC(=O)NCCNC(=O)/C=C/c1cccc(B(O)O)c1)c1nnc(C)n1-2	30%	30%	–
COc1ccc2c(c1)C(c1ccc(Cl)cc1)=N[C@@H](CC(=O)NCCNC(=O)/C=C/c1ccc(B(O)O)cc1)c1nnc(C)n1-2	30%	30%	30%
